According to publication PMC7677321, “Purification and biochemical characterization of Hel a 6, a cross-reactive pectate lyase allergen from Sunflower (Helianthus annuus L.) pollen” (Scientific Reports, 2020):

Target: T1, Hel a 6 (Helianthus annuus, UniProt A0A251RNJ1)
T1 construct: gene PLY2; natural protein purified from sunflower pollen
T1 sequence (A0A251RNJ1 23-394): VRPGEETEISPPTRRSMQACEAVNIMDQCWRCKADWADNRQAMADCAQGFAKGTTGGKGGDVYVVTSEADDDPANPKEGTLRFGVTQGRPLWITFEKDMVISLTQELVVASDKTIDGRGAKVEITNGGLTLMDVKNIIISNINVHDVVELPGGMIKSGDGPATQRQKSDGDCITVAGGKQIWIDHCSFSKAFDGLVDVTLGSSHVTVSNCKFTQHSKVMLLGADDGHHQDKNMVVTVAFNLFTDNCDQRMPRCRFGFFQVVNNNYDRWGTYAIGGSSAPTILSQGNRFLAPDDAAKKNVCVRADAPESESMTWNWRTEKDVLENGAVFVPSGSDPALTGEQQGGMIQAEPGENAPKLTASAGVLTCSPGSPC
Assay: pectate lyase assay, A235 increase
Type: biochemical
Conditions: 10 mM salicylic acid; 0.2% polygalacturonic acid, 0.2 mM CaCl2, 25 mM Tris-HCl pH 8.0, 37 °C (methods; results say 40 °C)

With O=C(O)c1ccccc1O [salicylic acid] the “pectate lyase assay, A235 increase” value was “the enzyme activity was ceased entirely when salicylic acid was added to the reaction mix”.
